Values of other authors, collected in patent US9060929B2, “Alprostadil for treatment of premature ejaculation” (Nexmed Holdings, Inc., priority 2003, dated 2015).
Where two headings read alike, the source gives them in different places.

Tests used:
[1] = tested on: men with premature ejaculation and/or erectile dysfunction
[2] = tested on: patients with PE; details: 6 months

Row | SMILES | latency to ejaculation ([1]; PE and PE+ED group taken together, p=0.007) | latency to ejaculation ([1]; PE+ED group, p=0.03) | ejaculation latency after treatment ([2]; PE group, 50 mg sertraline four hours before sex) | ejaculation latency after treatment ([2]; PE+ED group (sildenafil-treated), 50 mg sertraline)
1 | CNCCC(Oc1ccc(C(F)(F)F)cc1)c1ccccc1 (stereo not shown) [fluoxetine] | increased significantly | increased significantly |  | 
2 | CN[C@H]1CC[C@@H](c2ccc(Cl)c(Cl)c2)c2ccccc21 [sertraline] |  |  | 247.2 s | 111.6 s
